Holding throughout (format): physicochemical
Data set [1] can be described thus: Uptake of fluorescence labelled oligonucleotide on polymer 2.2 coated stent. The following applies: polymer 2.2 coated stents; 30 minutes in 5 mg/ml solution in physiological saline. On the procedure:
Stents coated with polymer 2.2 were loaded with a 15-mer c-myc antisense oligonucleotide AACGTTGAGGGGCAT (sequence ID 2) labelled with a fluorescence label by immersing them for 30 minutes in a 5 mg/ml solution of the DNA in physiological saline.
The total loading was determined by placing 3 of the stents each into 3 ml PBS and sonicating for 30 minutes. The fluorescent label was quantified.

The nature of data set [2]: Radiolabelled (35S) heparin loading and elution, polymer 2.2 coated stents. On the procedure: Radiolabelled (^35S) heparin (MW 8-10 kDa) was loaded onto stents coated with polymer 2.2, from a 2 mg/ml aqueous solution. To determine the total loading the stents were placed into liquid scintillant and coated for radioactivity. The mean uptake of heparin was 11 μg per stent. The stents were each placed into a volume of PBS to determine the rate of elution of heparin over a 4 hour period.

A short description of data set [3]: Heparin loading and release, polymer 2.1 coated stents. On the procedure:
This study investigated the ability of polymer 2.1 coated stents to take up and release a sample of unfractionated heparin with an average molecular weight of approx. 10000D.
Loading was carried out by immersion of the coated stents into a solution of heparin in PBS. A range of conditions were used to investigate the loading onto the stents.
Table 6 Summary of conditions and results of heparin loading and release Notes—*the time where released heparin reaches maximum; **the maximum weight of heparin released during a releasing experiment (see maximum point of the release profile, FIG. 2)

The nature of data set [4]: Loading of polymer films with FITC-Dextran. The following applies: FITC-Dextran mwt 4400; polymer 1.1 and polymer 2.1 coatings. On the procedure:
Steel strips (1 cm×1.5 cm) were cleaned in dichloromethane for 10 minutes using the ultra-sonics bath. 200 ul of a 50 mg/ml polymer solution was evenly coated onto the steel strips. For each polymer sample seven steel strips were coated. Coated steel strips were then dried overnight in a oven at 70° C. to cure the polymer films.
Six of the coated steel strips were placed polymer side down into a well containing a 1 mg/ml drug solution. One control sample was not loaded with drug. The steel strips were submerged for 1 hour. The steel strips were then removed from the well and the excess drug removed by dabbing the surface very gently with tissue. The steel strips were then allowed to dry for a further half hour at room temperature. Each sample was then dipped quickly in clean PBS solution to remove excess drug from the coating. (3 secs dip). Each steel strip was then placed in 3 ml of PBS solution contained in vials. Each vial was then sonicated for 20 mins at a bath temperature of 35° C. in order to extract the drug from the polymer coating. Each solution was then measured using fluorescence spectroscopy to determine the amount of drug uptake
In order to study the effect of drug molecular weight on the amount loaded into a polymer coating, a compound with a variety of molecular weights which could be detected by fluorescence had to be identified. […]

A short description of data set [5]: Abciximab loading and elution in vitro. The procedure: In this study ^125I-labelled abciximab was loaded onto stents coated with either polymer 2.2 or as a comparison a bare stent (no polymer) by immersing the stents in a solution of 2 mg/ml drug in phosphate buffered saline containing 0.001% polysorbate 80 to assist dissolution for 30 minutes at room temperature. The stents were removed and wick dried. The stents were then placed into channels each forming part of a separate circuit of recirculating ([…]) phosphate buffered saline containing 1% albumin at 37° C. The level of 1251 label remaining on the stent was determined by measuring the level of label in the circulating PBS over a period of 24 or 48 hours and reported in percentage terms. The total loading of drug on stent was also determined and found to be about 5 μg per stent for the stents coated with polymer 2.2.

[6] abbreviates: polymer 2.1 stent, loading 0.2 mg/ml, 30 min, released into 1 volume PBS.
The mark [7] stands for this setting: polymer 2.1 stent, loading 2.0 mg/ml, 30 min, released into 0.5 volume PBS.
Setting [8] is: polymer 2.1 stent, loading 10 mg/ml, 5 min, released into 0.5 volume PBS.

As for “AACGTTGAGGGGCAT [15-mer c-myc antisense oligonucleotide]”, the Total loading result in data set [1] was “about 20 μg per stent”.

Turning to heparin, in data set [2] (2 mg/ml aqueous solution), the “Mean uptake of heparin” value came to 11 μg per stent. Also, the Release pattern entry in data set [2] (elution into PBS over 4 hours) is listed as “released initially as a burst”. In addition, the “Time to 100% release of heparin” value in data set [2] (elution into PBS, extrapolation of 4 hour release data) was “about 24 hours”. Besides, the “Release from the stents” value in data set [3] (polymer 2.1 coated stents) was “released from the stents over a prolonged period of time”. The same substance had a Total loading in data set [3] (polymer 2.1 stent, loading 0.2 mg/ml, 30 min) of 3.4 µg. Moreover, the “Tmax (time where released heparin reaches maximum)” value in data set [3] (setting [6]) was determined as 15 min; in data set [3] (setting [7]) it was 20 min; in data set [3] (setting [8]) it was 10 min. Besides, the “Wmax (maximum weight of heparin released)” value is 0.73 µg in data set [3] (setting [6]), 2.07 µg in data set [3] (setting [7]) and 13.93 µg in data set [3] (setting [8]).

For “Fluorescein Iso Thiocyanate Dextran [FITC-Dextran]”, the “Uptake into polymer coatings” value in data set [4] is reported as “could not be detected”.

For “abciximab: antibody (MW about 50 kDa) to glycoprotein IIb/IIIa”, in data set [5] (cationic polymer (2.2) vs bare stent, PBS with 1% albumin at 37° C.), the “Release time from stent” value is “released over a more extended time”. Further, the “Total loading of drug on stent” value in data set [5] (stents coated with polymer 2.2, 2 mg/ml, 30 minutes, room temperature) is on record as “about 5 μg per stent”.

(Values after patent publication US6746686B2, “Coated implants” (Biocompatibles UK Limited, priority 2001, dated 2004).)
